Here are results for 23 compounds from patent publication US9353101B2 (Merck Sharp & Dohme Corp., priority 2012, dated 2016).

The target of the experiment is CETP (Homo sapiens (Human), UniProt P11597). The experiment in a line: In vitro radioactive assay of CETP-catalyzed CE and TG transfer (RTA assay), 95% human serum. It is filed as biochemical. Conditions: RTA assay in 95% human serum; read-out: RTA IC50 (CETP Inhibition). The protocol:
In Vitro Radioactive Assays of CETP-Catalyzed CE and TG Transfer (RTA Assay)
Reagents and sources are: [3H] cholesteryl oleate (GE #TRK.886), [3H] Triolein (Perkin-Elmer NET-431), Butylated hydroxyl toluene (Aldrich, #D4740-4), DOPC (Sigma, # P6354), Sodium Bromide (Fisher scientific #S255-500), PEG 8000 (Fisher, #BP233-1), and human HDL (Intracel Corp #RP-036).
An in vitro assay for determining IC50's to identify compounds that inhibit CETP transfer activity is performed based on a modification of a published method (Morton and Zilversmit, (1981) A plasma inhibitor of triglyceride and cholesteryl ester transfer activities, J. Biol. Chem. 256(23), 11992-11995). The ability of inhibitors to alter CETP activity is performed using two different assays: one using recombinant CETP and one using an endogenous plasma source of CETP. Both assays measure the transfer of [3H] cholesteryl oleate or [3H] triolein from exogenous LDL to HDL.
Radiolabeled donor particles are generated by first combining 100 μl of 200 μM butylated hydroxyl toluene in CHCl3, 216 μL of 21.57 mM DOPC in EtOH, and either 500 μCi [3H]-triolein (Perkin Elmer #NET-431) or 500 μCi [3H]-cholesteryl oleate (GE #TRK886) in a glass tube. Reagents are mixed, dried under nitrogen, and then resuspended in 2 mL of 50 mM Tris, 27 μM EDTA at pH 7.4. After a brief vortex, the solution is sonicated until clear and mixed with 20 mL of fresh human serum. The mixture is incubated overnight at 37° C. The [3H] labeled LDL substrate is separated at 1.063 g/ml density by sequential ultracentrifugal flotation in NaBr according to the method by (Havel, Eder et al. 1955; Chapman, Goldstein et al. 1981). Once isolated the particles are dialyzed 3× in CETP buffer (50 mM Tris, pH 7.4, 100 mM NaCl, 1 mM EDTA). Human HDL is purchased from Intracel and used as the acceptor particles.
Transfer assays are performed in a 96 or 384-well v-bottom polypropylene plate. For the RTA using recombinant CETP (2% RTA), an assay cocktail is prepared with the final concentrations 128 μg/mL HDL, 20 nM rCETP, 2% human serum, and 1×CETP buffer. 1 μL of each test compound diluted in DMSO is added to 47 μL of assay cocktail per well and incubated at 37° C. for 1 hour. To initiate the transfer reaction, 2 μL radiolabeled LDL is added. After an additional 60 min of incubation at 37° C., the transfer action is terminated by precipitation of LDL with an equal volume of 20% W/V PEG 8000. The plates are centrifuged at 2000 rpm for 30 minutes at 4° C. A 40 μL aliquot of the HDL-containing supernatant is transferred to a Packard Optiplate™ with 200 μL of MicroScint™ 20. After mixing, plates are counted by liquid scintillation. Counts present in the supernatant for blanks (wells containing only HDL acceptor, CETP buffer and DMSO) are subtracted from those containing test compounds and used to correct for non-specific transfer.
For the transfer assay using endogenous CETP from serum (95% RTA), the same procedure is used except that human serum is added such that a final concentration of serum of 95% of the total assay volume is achieved, yielding a concentration of approximately 15 nM endogenous CETP in the assay. This is then combined with HDL and CETP buffer and the reaction proceeds as above and is terminated as described.
Comparison of the counts of samples with inhibitors to an uninhibited (DMSO only) positive control yield a percent inhibition. A plot of percent inhibition vs. log of inhibitor concentration, fit to a Sigmoidal 4 parameter equation is used to calculate IC50.
Starting materials are commercially available or are made using known procedures or as shown below. The examples may be synthesized using the general schemes provided below. The data reported for the examples below were obtained using the RTA assay in 95% human serum.

CETP, sequence (P11597 18-493 limits assumed): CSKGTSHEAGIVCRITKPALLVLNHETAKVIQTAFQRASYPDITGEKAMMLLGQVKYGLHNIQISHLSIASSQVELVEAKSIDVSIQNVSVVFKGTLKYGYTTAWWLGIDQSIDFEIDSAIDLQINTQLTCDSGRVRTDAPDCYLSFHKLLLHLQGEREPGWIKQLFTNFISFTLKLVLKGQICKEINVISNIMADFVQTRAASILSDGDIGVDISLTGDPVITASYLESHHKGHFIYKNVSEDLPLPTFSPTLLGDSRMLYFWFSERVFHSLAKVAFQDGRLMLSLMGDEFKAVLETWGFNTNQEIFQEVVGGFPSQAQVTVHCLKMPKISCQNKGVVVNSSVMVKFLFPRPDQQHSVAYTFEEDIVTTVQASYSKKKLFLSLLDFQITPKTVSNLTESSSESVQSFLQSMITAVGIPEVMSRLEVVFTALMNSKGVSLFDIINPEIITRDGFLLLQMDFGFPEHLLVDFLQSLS

For orientation: IC50 means the concentration at which inhibition is half-maximal. Regarding `COc1ncc(C(C)(O)C(F)(F)F)cc1-c1cnc(N2CC(F)C2)nc1CN1C(=O)O[C@H](c2cc(C(F)(F)F)cc(C(F)(F)F)c2)[C@@H]1C` (mixture of isomers) [Example 16, (4S,5R)-5-[3,5-Bis(trifluoromethyl)phenyl]-3-{[2-(3-fluoroazetidin-1-yl)-5-{2-methoxy-5-[(2RS)-1,1,1-trifluoro-2-hydroxypropan-2-yl]pyridin-3-yl}pyrimidin-4-yl]methyl}-4-methyl-1,3-oxazolidin-2-one], the IC50 was determined as 14 nM. The value for `COc1ncc(-c2sc(C)nc2C)cc1-c1cnc(N2CC(F)C2)nc1CN1C(=O)O[C@H](c2cc(C(F)(F)F)cc(C(F)(F)F)c2)[C@@H]1C` [Example 3, (4S,5R)-5-[3,5-Bis(trifluoromethyl)phenyl]-3-({5-[5-(2,4-dimethyl-1,3-thiazol-5-yl)-2-methoxypyridin-3-yl]-2-(3-fluoroazetidin-1-yl)pyrimidin-4-yl}methyl)-4-methyl-1,3-oxazolidin-2-one] was 3 nM. Regarding `COc1ncc(-c2c(C)nn(C)c2C)cc1-c1cnc(N2CC(F)C2)nc1CN1C(=O)O[C@H](c2cc(C(F)(F)F)cc(C(F)(F)F)c2)[C@@H]1C` [Example 6], the IC50 was 3 nM. Regarding `COc1ncc(-c2c(C)noc2C)cc1-c1cnc(N2CC(F)C2)nc1CN1C(=O)O[C@H](c2cc(C(F)(F)F)cc(C(F)(F)F)c2)[C@@H]1C` [Example 7], the IC50 was found to be 3 nM. For `COc1ncc(CCC(=O)O)cc1-c1cnc(N2CC(F)C2)nc1CN1C(=O)O[C@H](c2cc(C(F)(F)F)cc(C(F)(F)F)c2)[C@@H]1C` [Example 8], the IC50 worked out at 92 nM.

As to `COc1ncc(C(F)(F)F)cc1-c1cnc(N2CC(F)C2)nc1CN1C(=O)O[C@H](c2cc(C(F)(F)F)cc(C(F)(F)F)c2)[C@@H]1C` [Example 9, (4S,5R)-5-[3,5-Bis(trifluoromethyl)phenyl]-3-({2-(3-fluoroazetidin-1-yl)-5-[2-methoxy-5-(trifluoromethyl)pyridin-3-yl]pyrimidin-4-yl}methyl)-4-methyl-1,3-oxazolidin-2-one], the concentration for half-maximal inhibition (IC50) is 14 nM. Consider `CCOc1ncc(C(F)(F)F)cc1-c1cnc(N2CC(F)C2)nc1CN1C(=O)O[C@H](c2cc(C(F)(F)F)cc(C(F)(F)F)c2)[C@@H]1C` [Example 10], for which the IC50 stood at 12 nM. The figure for `COc1ncc(C(C)C)cc1-c1cnc(N2CC(F)C2)nc1CN1C(=O)O[C@H](c2cc(F)cc(F)c2)[C@@H]1C` [Example 14, (4S,5R)-5-(3,5-Difluorophenyl)-3-{[2-(3-fluoroazetidin-1-yl)-5-(5-isopropyl-2-methoxypyridin-3-yl)pyrimidin-4-yl]methyl}-4-methyl-1,3-oxazolidin-2-one] is 16 nM; for `COc1ncc(-c2c(C)n[nH]c2C)cc1-c1cnc(N2CC(F)C2)nc1CN1C(=O)O[C@H](c2cc(C(F)(F)F)cc(C(F)(F)F)c2)[C@@H]1C` [Example 17, (4S,5R)-5-[3,5-Bis(trifluoromethyl)phenyl]-3-({5-[5-(3,5-dimethyl-1H-pyrazol-4-yl)-2-methoxypyridin-3-yl]-2-(3-fluoroazetidin-1-yl)pyrimidin-4-yl}methyl)-4-methyl-1,3-oxazolidin-2-one] it is 5 nM; for `CCCn1nc(C)c(-c2cnc(OC)c(-c3cnc(N4CC(F)C4)nc3CN3C(=O)O[C@H](c4cc(C(F)(F)F)cc(C(F)(F)F)c4)[C@@H]3C)c2)c1C` [Example 18, (4S,5R)-5-[3,5-Bis(trifluoromethyl)phenyl]-3-({5-[5-(3,5-dimethyl-1-propyl-1H-pyrazol-4-yl)-2-methoxypyridin-3-yl]-2-(3-fluoroazetidin-1-yl)pyrimidin-4-yl}methyl)-4-methyl-1,3-oxazolidin-2-one] it is 12 nM. With `CCn1nc(C)c(-c2cnc(OC)c(-c3cnc(N4CC(F)C4)nc3CN3C(=O)O[C@H](c4cc(C(F)(F)F)cc(C(F)(F)F)c4)[C@@H]3C)c2)c1C` [Example 19], the IC50 was 9 nM.

In the case of `COc1ncc(-c2c(C)nn(CC#N)c2C)cc1-c1cnc(N2CC(F)C2)nc1CN1C(=O)O[C@H](c2cc(C(F)(F)F)cc(C(F)(F)F)c2)[C@@H]1C` [Example 21], the IC50 worked out at 18 nM. The figure for `COc1ncc(-c2c(C)nn(CC(N)=O)c2C)cc1-c1cnc(N2CC(F)C2)nc1CN1C(=O)O[C@H](c2cc(C(F)(F)F)cc(C(F)(F)F)c2)[C@@H]1C` [Example 22] is 22 nM.

With `COc1ncc(-c2c(C)n[nH]c2C)cc1-c1cnc(N2CC(F)(F)C2)nc1CN1C(=O)O[C@H](c2cc(C(F)(F)F)cc(C(F)(F)F)c2)[C@@H]1C` [Example 23, (4S,5R)-5-[3,5-Bis(trifluoromethyl)phenyl]-3-({2-(3,3-difluoroazetidin-1-yl)-5-[5-(3,5dimethyl-1H-pyrazol-4-yl)-2-methoxypyridin-3-yl]pyrimidin-4-yl}methyl)-4-methyl-1,3-oxazolidin-2-one], the half-inhibitory concentration (IC50) came to 15 nM. The figure for `COc1ncc(-c2c(C)n[nH]c2C)cc1-c1cnc(N2CC(O)C2)nc1CN1C(=O)O[C@H](c2cc(C(F)(F)F)cc(C(F)(F)F)c2)[C@@H]1C` [Example 24] is 332 nM; for `COc1ncc(-c2c(C)n[nH]c2C)cc1-c1cnc(N2CCCC2)nc1CN1C(=O)O[C@H](c2cc(C(F)(F)F)cc(C(F)(F)F)c2)[C@@H]1C` [Example 25] it is 20 nM. The figure for `COc1ncc(-c2c(C)n[nH]c2C)cc1-c1cnc(N2CCOCC2)nc1CN1C(=O)O[C@H](c2cc(C(F)(F)F)cc(C(F)(F)F)c2)[C@@H]1C` [Example 26] is 23 nM. `COc1ncc(-c2c(C)n[nH]c2C)cc1-c1cnc(N2CCC2)nc1CN1C(=O)O[C@H](c2cc(C(F)(F)F)cc(C(F)(F)F)c2)[C@@H]1C` [Example 27]: the IC50 was 19 nM. The value for `COc1ncc(C(C)C)cc1-c1cnc(N2CC(F)(F)C2)nc1CN1C(=O)O[C@H](c2cc(C(F)(F)F)cc(C(F)(F)F)c2)[C@@H]1C` [Example 28, (4S,5R)-5-[3,5-Bis(trifluoromethyl)phenyl]-3-{[2-(3,3-difluoroazetidin-1-yl)-5-(5-isopropyl-2-methoxypyridin-3-yl)pyrimidin-4-yl]methyl}-4-methyl-1,3-oxazolidin-2-one] was 5 nM. As for `COc1ncc(C(C)C)cc1-c1cnc(N2[C@H](C)CC[C@H]2C)nc1CN1C(=O)O[C@H](c2cc(C(F)(F)F)cc(C(F)(F)F)c2)[C@@H]1C` [Example 29], the IC50 came out at 430 nM. For `COc1ncc(C(C)C)cc1-c1cnc(N2CCC[C@@H]2C)nc1CN1C(=O)O[C@H](c2cc(C(F)(F)F)cc(C(F)(F)F)c2)[C@@H]1C` [Example 30], the IC50 turned out to be 18 nM. The figure for `COc1ncc(C(C)C)cc1-c1cnc(N2CCC2)nc1CN1C(=O)O[C@H](c2cc(C(F)(F)F)cc(C(F)(F)F)c2)[C@@H]1C` [Example 31] is 5 nM; for `COc1ncc(-c2c(C)cc(C(=O)O)cc2C)cc1-c1cnc(N2CC(F)C2)nc1CN1C(=O)O[C@H](c2cc(C(F)(F)F)cc(C(F)(F)F)c2)[C@@H]1C` [Example 32, 4-{5-[4-({(4S,5R)-5-[3,5-Bis(trifluoromethyl)phenyl]-4-methyl-2-oxo-1,3-oxazolidin-3-yl}methyl)-2-(3-fluoroazetidin-1-yl)pyrimidin-5-yl]-6-methoxypyridin-3-yl}-3,5-dimethylbenzoic acid] it is 7 nM.
